We go through 9 compounds from patent US20140011799A1 (Bristol-Myers Squibb Company, priority 2012, published 2014).

A value given as a limit tells only on which side of the number the result lay.

For orientation: IC50 means the concentration at which inhibition is half-maximal.

The experiment concerns the target T1, Endothelial lipase (EL) (Homo sapiens, UniProt Q9Y5X9).
T1 construct: HT-1080 cells that were transformed using RAGE technology (Athersys) to overexpress endogenous EL; endogenous in cells; conditioned medium used
T1 sequence (Q9Y5X9 21-500): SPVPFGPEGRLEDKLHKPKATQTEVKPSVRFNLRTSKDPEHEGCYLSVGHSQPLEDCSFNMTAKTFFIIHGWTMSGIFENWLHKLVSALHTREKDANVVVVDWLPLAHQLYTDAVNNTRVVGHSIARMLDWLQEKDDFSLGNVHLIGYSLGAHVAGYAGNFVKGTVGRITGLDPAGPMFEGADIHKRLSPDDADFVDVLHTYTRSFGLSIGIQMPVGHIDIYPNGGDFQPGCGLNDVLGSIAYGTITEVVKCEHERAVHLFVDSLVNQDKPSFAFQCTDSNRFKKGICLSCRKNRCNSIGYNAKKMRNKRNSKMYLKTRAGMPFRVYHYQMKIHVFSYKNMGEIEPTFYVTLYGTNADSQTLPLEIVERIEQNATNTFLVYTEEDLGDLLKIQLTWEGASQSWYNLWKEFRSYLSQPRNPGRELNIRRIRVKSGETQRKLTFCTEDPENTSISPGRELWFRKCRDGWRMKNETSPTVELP
The experiment is described as follows: Endothelial lipase (EL) enzymatic assay, fluorescent substrate A10070 in DMPG vesicles. Type of experiment: biochemical. To be noted: EL from conditioned media of HT-1080 cells; compound preincubated 30 min at 37° C; read-out: EL IC50. The protocol: Endothelial lipase (EL) and hepatic lipase (HL) activities were measured using a fluorescent substrate, A10070, (Invitrogen, CA) doped into an artificial vesicle containing DMPG (Avanti Polar Lipids) as the excipient. Vesicles were prepared by combining 571 μL of 29 mM DMPG in a 1:1 mixture of MeOH and CHCl3 with 2000 μL of 1 mM A10070 in a 1:1 mixture of MeOH and CHCl3. The mixture was dried under nitrogen in multiple vials then resuspended in 20 mL total volume of 50 mM HEPES pH 8.0 buffer containing 50 mM NaCl and 0.2 mM EDTA. The sample was allowed to sit at room temperature for 15 min and then was sonicated 3×4 mins on ice with a Branson Sonicator using duty cycle 1. This preparation provides vesicles with a mole fraction of 0.11 for the FRET substrate.
The enzymatic assay was measured using 384-well white Optiplates. Each well contained 20 μL of assay buffer (50 mM HEPES pH 8.0, 50 mM NaCl and 1 mM CaCl2) and 0.25 μL of a DMSO solution containing a compound of interest. EL or HL (10 μL) was added and allowed to incubate with the compound for 30 min at 37° C. The source of EL was conditioned media obtained from HT-1080 cells that were transformed using RAGE technology (Athersys) to overexpress endogenous EL, and HL was partially purified from conditioned media obtained from COS cells overexpressing HL. The reaction was started by the addition of 10 μL of a 1:10 dilution of vesicles. The final total reaction volume was […]. The reaction rates were measured on a Gemini plate reader with an excitation wavelength of 490 nm and an emission wavelength of 530 nm. Readings were taken over a period of 60 minutes, and the slope between 300 and 900 secs of the readout was used to calculate the rate of the reaction.
In the case of `CC(c1nnc(CNS(N)(=O)=O)o1)(c1nc2ccc(-c3ccccc3)cc2s1)S(C)(=O)=O` (single isomer, unassigned) [Reference 1, Isomer A, N-((5-(1-(Methylsulfonyl)-1-(6-phenyl-1,3-benzothiazol-2-yl)ethyl)-1,3,4-oxadiazol-2-yl)methyl)sulfamide, reference compound], the half-maximal inhibitory concentration (IC50) stood at 3750 nM.
With `CC(c1nnc(CNS(N)(=O)=O)o1)(c1nc2ccc(-c3ccccc3)cc2s1)S(C)(=O)=O` (single isomer, unassigned) [Reference 1, Isomer B, N-((5-(1-(Methylsulfonyl)-1-(6-phenyl-1,3-benzothiazol-2-yl)ethyl)-1,3,4-oxadiazol-2-yl)methyl)sulfamide, reference compound] the figure was 5200 nM.
With `CC1(Cc2nnc(C(c3nc4ccc(-c5ccc(F)nc5)cc4s3)S(=O)(=O)Cc3ccccc3)o2)SC(=O)NC1=O` (single isomer, unassigned; isomer a) [Example 1, 5-((5-((Benzylsulfonyl)(6-(6-fluoropyridin-3-yl)benzo[d]thiazol-2-yl)methyl)-1,3,4-oxadiazol-2-yl)methyl)-5-methylthiazolidine-2,4-dione (Isomer A)] the figure was under 10 nM; with `CC1(Cc2nnc(C(c3nc4ccc(-c5ccc(F)nc5)cc4s3)S(=O)(=O)Cc3ccccc3)o2)NC(=O)NC1=O` (single isomer, unassigned; isomer a) [Example 6, 5-((5-((benzylsulfonyl)(6-(6-fluoropyridin-3-yl)benzo[d]thiazol-2-yl)methyl)-1,3,4-oxadiazol-2-yl)methyl)-5-methylimidazolidine-2,4-dione (Isomer A)], 11 nM.
With `CC1(Cc2nnc(C(c3nc4ccc(-c5ccnc(F)c5)cc4s3)S(=O)(=O)Cc3ccccc3)o2)NC(=O)NC1=O` (single isomer, unassigned; isomer a) [Example 9, 5-((5-((benzylsulfonyl)(6-(2-fluoropyridin-4-yl)benzo[d]thiazol-2-yl)methyl)-1,3,4-oxadiazol-2-yl)methyl)-5-methylimidazolidine-2,4-dione (Isomer A)] the figure was 122 nM; with `CC1(Cc2nnc(C(c3nc4ccc(-c5ccnc(F)c5)cc4s3)S(C)(=O)=O)o2)NC(=O)NC1=O` (single isomer, unassigned; isomer a) [Example 13, 5-((5-((6-(2-fluoropyridin-4-yl)benzo[d]thiazol-2-yl)(methylsulfonyl)methyl)-1,3,4-oxadiazol-2-yl)methyl)-5-methylimidazolidine-2,4-dione (Isomer A)], under 10 nM; with `CC1(Cc2nnc(C(c3nc4ccc(-c5ccc(C(=O)N6CCOCC6)cc5)cc4s3)S(C)(=O)=O)o2)NC(=O)NC1=O` (single isomer, unassigned; isomer a) [Example 14, 5-methyl-5-((5-((methylsulfonyl)(6-(4-(morpholine-4-carbonyl)phenyl)benzo[d]thiazol-2-yl)methyl)-1,3,4-oxadiazol-2-yl)methyl)imidazolidine-2,4-dione (Isomer A)], 12 nM.
In the case of `CC1(Cc2nnc(C(c3nc4ccc(-c5ccc(F)nc5)cc4s3)S(C)(=O)=O)o2)SC(=O)NC1=O` (single isomer, unassigned; isomer a) [Example 17, 5-((5-((6-(6-fluoropyridin-3-yl)benzo[d]thiazol-2-yl)(methylsulfonyl)methyl)-1,3,4-oxadiazol-2-yl)methyl)-5-methylthiazolidine-2,4-dione (Isomer A)], the IC50 is under 10 nM.
With `CC1(Cc2nnc(C(c3nc4ccc(-c5ccc(F)nc5)cc4s3)S(C)(=O)=O)o2)NC(=O)NC1=O` (single isomer, unassigned; isomer a) [Example 21, 5-((5-((6-(6-fluoropyridin-3-yl)benzo[d]thiazol-2-yl)(methylsulfonyl)methyl)-1,3,4-oxadiazol-2-yl)methyl)-5-methylimidazolidine-2,4-dione (Isomer A)] the figure was 281 nM.
